Experimental findings from ChEMBL document CHEMBL4130457, “Discovery of AZD-2098 and AZD-1678, Two Potent and Bioavailable CCR4 Receptor Antagonists” (ACS Med Chem Lett, 2017) are described below.

Data set [1] in a line: Solubility of the compound. The data set is classed as physicochemical.
In a further data set the test system is Hepatocyte. In words: Stability in human hepatocytes assessed per million cells.
The target in data set [2] is T1, C-C chemokine receptor type 4 (Mus musculus, UniProt P51680).
T1 sequence (P51680 whole entry): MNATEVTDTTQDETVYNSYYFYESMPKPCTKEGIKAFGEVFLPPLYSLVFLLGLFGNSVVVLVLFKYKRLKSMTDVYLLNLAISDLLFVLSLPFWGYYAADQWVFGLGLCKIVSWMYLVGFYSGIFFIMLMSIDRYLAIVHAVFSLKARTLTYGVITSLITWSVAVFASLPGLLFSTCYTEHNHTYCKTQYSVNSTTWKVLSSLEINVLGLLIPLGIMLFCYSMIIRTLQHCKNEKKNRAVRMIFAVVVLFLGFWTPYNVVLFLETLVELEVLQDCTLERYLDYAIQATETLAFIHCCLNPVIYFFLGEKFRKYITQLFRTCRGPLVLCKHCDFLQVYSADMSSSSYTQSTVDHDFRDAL
Briefly: Antagonist activity at mouse CCR4. The data set is classed as functional.

The target in data set [3] is T2, C-X-C chemokine receptor type 1 (Homo sapiens) (UniProt P25024).
T2 sequence (whole entry): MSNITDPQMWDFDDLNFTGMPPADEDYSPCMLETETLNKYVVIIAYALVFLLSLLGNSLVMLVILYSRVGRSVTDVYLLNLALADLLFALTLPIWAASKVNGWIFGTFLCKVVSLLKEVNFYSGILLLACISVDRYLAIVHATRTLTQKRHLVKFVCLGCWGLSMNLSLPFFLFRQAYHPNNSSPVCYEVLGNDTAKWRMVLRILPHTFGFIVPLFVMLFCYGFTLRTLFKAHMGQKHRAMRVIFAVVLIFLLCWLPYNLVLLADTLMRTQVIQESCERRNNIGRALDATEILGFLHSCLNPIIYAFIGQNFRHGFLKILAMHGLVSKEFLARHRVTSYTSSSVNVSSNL
Briefly: Antagonist activity at CXCR1 (unknown origin) at 10 uM. The data set is classed as functional.

Data set [4] deals with T3, C-X-C chemokine receptor type 2 (Homo sapiens) (UniProt P25025).
T3 sequence (whole entry): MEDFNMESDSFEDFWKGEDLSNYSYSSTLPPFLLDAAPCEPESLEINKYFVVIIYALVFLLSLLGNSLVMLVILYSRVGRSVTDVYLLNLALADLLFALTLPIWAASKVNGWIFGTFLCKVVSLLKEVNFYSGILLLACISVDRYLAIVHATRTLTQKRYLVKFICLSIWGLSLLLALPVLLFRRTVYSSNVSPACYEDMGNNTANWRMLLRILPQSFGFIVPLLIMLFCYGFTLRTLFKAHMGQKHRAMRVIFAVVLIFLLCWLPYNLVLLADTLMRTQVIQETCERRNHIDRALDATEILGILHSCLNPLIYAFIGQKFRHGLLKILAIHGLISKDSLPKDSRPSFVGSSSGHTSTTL
Briefly: Antagonist activity at CXCR2 (unknown origin) at 10 uM. The data set is classed as functional.

The target in data set [5] is C-C chemokine receptor type 2 (Homo sapiens) (UniProt P41597). In words: Antagonist activity at CCR2b (unknown origin) at 10 uM.
The target of data set [6] is C-C chemokine receptor type 8 (Homo sapiens) (UniProt P51685). In words: Antagonist activity at CCR8 (unknown origin) at 10 uM. The class given is functional.
Data set [7] addresses T4, C-C chemokine receptor type 4 (Canis lupus familiaris, UniProt Q8MJW8).
T4 sequence (Q8MJW8 whole entry): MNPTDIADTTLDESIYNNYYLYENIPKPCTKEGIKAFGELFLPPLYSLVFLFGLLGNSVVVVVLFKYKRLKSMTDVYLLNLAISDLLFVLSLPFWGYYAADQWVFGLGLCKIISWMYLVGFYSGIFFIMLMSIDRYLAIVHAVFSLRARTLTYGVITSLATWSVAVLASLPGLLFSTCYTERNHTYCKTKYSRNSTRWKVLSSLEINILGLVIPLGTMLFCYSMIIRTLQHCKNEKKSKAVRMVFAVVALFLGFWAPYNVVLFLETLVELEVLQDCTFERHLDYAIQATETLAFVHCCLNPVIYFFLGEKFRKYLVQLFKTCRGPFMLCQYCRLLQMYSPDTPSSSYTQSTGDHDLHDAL
In words: Antagonist activity at dog CCR4.

Data set [8] in a line: Clearance in dog at 9 umol/kg, po or 3 umol/kg, iv. The data set is classed as ADME, organism-based, Canis lupus familiaris. To be noted: in vivo.
Data set [9] can be described thus: Volume of distribution at steady state in rat at 9 umol/kg, po or 3 umol/kg, iv. The settings on record: in vivo, read-out: Vdss. The data set is classed as ADME, organism-based.
The nature of data set [10]: Volume of distribution at steady state in dog at 9 umol/kg, po or 3 umol/kg, iv. The class given is ADME, organism-based, Canis lupus familiaris. To be noted: in vivo, read-out: Vdss.
A short description of data set [11]: Half life in rat at 9 umol/kg, po or 3 umol/kg, iv. The settings on record: in vivo. The data set is classed as ADME, organism-based.
Data set [12] can be described thus: Half life in dog at 9 umol/kg, po or 3 umol/kg, iv. The class given is ADME, organism-based, Canis lupus familiaris. To be noted: in vivo.
Data set [13] has as its target T5, C-C chemokine receptor type 4 (Homo sapiens, UniProt P51679).
T5 sequence (P51679 whole entry): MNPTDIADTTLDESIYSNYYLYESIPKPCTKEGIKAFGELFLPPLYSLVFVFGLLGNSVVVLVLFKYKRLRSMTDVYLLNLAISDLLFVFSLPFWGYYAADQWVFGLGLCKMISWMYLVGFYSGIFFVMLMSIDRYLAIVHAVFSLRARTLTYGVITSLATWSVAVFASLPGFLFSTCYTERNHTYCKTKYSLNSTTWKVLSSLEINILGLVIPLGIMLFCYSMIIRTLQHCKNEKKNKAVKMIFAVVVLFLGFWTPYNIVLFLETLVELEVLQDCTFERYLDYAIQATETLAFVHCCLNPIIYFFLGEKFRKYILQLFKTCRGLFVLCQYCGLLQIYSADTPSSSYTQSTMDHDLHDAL
Briefly: Antagonist activity at human CCR4 expressed in CHO cells coexpressing CD4+ assessed as inhibition of CCL22 induced Ca2+ mobilization. The class given is functional, cell-based. (In general: Calcium flux is commonly read through the fluorescence of an indicator in the cells.)

Data set [14] deals with T6, C-C chemokine receptor type 4 (Homo sapiens) (UniProt P51679).
T6 sequence (whole entry): T5 sequence (P51679 whole entry)
Briefly: Agonist activity at CCR4 (unknown origin) up to 10 uM. The data set is classed as functional.

Data set [15] deals with Rattus norvegicus. In words: Antiinflammatory activity in OVA-induced Brown Norway rat lung assessed as reduction in leukocyte trafficking in microvasculature administered po bid 1 hr prior to antigen challenge and every 12 hrs prior to termination 96 hrs post challenge by histopathological analysis. The data set is classed as functional, organism-based.
For data set [16], the system named is Rattus norvegicus. Briefly: Terminal trough concentration in OVA-induced Brown Norway rat plasma at 0.22 to 2.2 umol/kg, po bid measured 12 hrs post last dose. The settings on record: in vivo, BLD = below limit of detection. The data set is classed as ADME, organism-based.
Data set [17] can be described thus: Terminal trough concentration in OVA-induced Brown Norway rat plasma at 7.5 umol/kg, po bid measured 12 hrs post last dose. The class given is ADME, organism-based. The settings on record: read-out: Cmin.
A short description of data set [18]: Ratio of free plasma concentration in Brown Norway rat at 3 umol/kg to pIC50 for recombinant human CCR4 expressed in CHO-K1 cells. The class given is ADME, cell-based. To be noted: in vivo.
Data set [19] is described as follows: Ratio of free plasma concentration in Brown Norway rat at 7.5 umol/kg to pIC50 for recombinant human CCR4 expressed in CHO-K1 cells. The class given is ADME, cell-based. To be noted: in vivo.
The nature of data set [20]: Ratio of free plasma concentration in Brown Norway rat at 15 umol/kg to pIC50 for recombinant human CCR4 expressed in CHO-K1 cells. The class given is ADME, cell-based. The settings on record: in vivo.

Usually solubility stands for the concentration that dissolves in the medium under given conditions. Higher therefore signals a readily soluble substance. Broadly, the IC50 is the concentration that inhibits the measured activity by half. As usually defined, the half-life is the time in which the quantity being followed falls by half. Read a high half-life as slow decline.

Values after ≈ are worked out from the molar mass of the structure shown. Active and inactive are the calls of the source. The calls are words filed in the database; no cut-off is given here.

Chain of C-C chemokine receptor type 2 (Homo sapiens) (P41597 whole entry, looked up): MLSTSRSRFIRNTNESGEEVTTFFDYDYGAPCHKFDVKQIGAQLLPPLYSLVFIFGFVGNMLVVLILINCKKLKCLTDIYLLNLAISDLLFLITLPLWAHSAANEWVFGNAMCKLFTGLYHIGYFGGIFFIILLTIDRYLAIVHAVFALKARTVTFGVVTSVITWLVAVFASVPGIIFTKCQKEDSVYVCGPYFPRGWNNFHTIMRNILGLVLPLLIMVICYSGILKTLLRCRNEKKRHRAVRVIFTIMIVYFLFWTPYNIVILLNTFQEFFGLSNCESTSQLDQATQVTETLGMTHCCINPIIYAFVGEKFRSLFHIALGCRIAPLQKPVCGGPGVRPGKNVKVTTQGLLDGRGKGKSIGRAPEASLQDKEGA
Chain of C-C chemokine receptor type 8 (Homo sapiens) (P51685 whole entry): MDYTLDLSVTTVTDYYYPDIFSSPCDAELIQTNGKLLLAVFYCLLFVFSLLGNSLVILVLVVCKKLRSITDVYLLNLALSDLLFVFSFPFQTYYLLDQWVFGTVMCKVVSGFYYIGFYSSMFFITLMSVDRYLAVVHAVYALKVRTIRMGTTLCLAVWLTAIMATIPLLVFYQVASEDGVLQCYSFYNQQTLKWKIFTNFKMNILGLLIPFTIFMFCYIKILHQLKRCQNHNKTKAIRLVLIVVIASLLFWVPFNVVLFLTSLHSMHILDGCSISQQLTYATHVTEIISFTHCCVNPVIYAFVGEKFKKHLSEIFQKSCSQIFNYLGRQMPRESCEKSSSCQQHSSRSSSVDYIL

The compound `COc1nccnc1NS(=O)(=O)c1cccc(Cl)c1Cl` returned a solubility in data set [1] of 1500 µg/mL (≈ 4.49 mM). The compound also displayed a Stability in the data set with Hepatocyte of less than 0.2 uL/ml. In addition, the 50% inhibitory concentration (IC50) in [2] was 10 nM; in data set [7], 25.1 nM; in data set [13], 31.6 nM. Further, the result in [3], in data set [4], in [5], in data set [6] and in [14] was inactive. Further, the clearance in [8] is 1.5 mL/min/kg. Besides, the Vd in data set [9] worked out at 0.2 L/kg; in data set [10] it was 0.1 L/kg. Moreover, the half-life was 1.7 h in [11] and 1 h in data set [12]. In addition, in the data set on Rattus norvegicus [15], the Activity result was “Dose-dependent effect”. In addition, the Cmin result in the data set on Rattus norvegicus [16] was “Bld”. In [17], the concentration at 12 h is 140 nM. Besides, the results for the Ratio in data set [18], in [19] and in [20] were 0.6, 3 and 9, respectively.
